# From BindingDB's records for patent US20250197396 (Lieber Institute, 2025)
# Target: Inositol hexakisphosphate kinase 1 (Homo sapiens, UniProt Q92551)
# Test: Not found
# Description: Not found
# Chain of Inositol hexakisphosphate kinase 1 (Q92551 whole entry): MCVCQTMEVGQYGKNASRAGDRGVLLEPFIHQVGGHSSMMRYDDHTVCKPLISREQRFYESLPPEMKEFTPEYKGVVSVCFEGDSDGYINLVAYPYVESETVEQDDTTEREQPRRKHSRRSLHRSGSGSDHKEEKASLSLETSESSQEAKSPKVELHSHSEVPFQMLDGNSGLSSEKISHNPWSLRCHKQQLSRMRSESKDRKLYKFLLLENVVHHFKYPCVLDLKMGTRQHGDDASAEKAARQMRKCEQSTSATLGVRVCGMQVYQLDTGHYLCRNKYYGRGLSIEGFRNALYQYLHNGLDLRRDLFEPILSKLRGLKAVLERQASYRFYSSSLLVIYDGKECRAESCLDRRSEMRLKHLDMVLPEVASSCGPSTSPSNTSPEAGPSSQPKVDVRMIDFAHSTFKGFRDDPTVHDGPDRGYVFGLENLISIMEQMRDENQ
smiles,measurement,value
"O=C(O)c1ccc2c(c1)C1(CCN(Cc3ncc(Cl)cc3Cl)CC1)C(=O)N2 [US20250197396, Compound 18a]",IC50,< 300 nM
